Test results as given in patent US12594276B2, “Inhibitors of human immunodeficiency virus replication” (ViiV Healthcare UK (No.5) Limited, priority 2024, dated 2026).

Tests used:
[1] = Compound cytotoxicity, XTT-based colorimetric assay; format: cell-based; conditions: human; uninfected MT2 cells, day 4, XTT; read-out: CC50
In short: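 Follows the antiviral assay procedure, but with uninfected MT2 cells. On day 4, cell viability is measured by XTT-based colorimetry, giving CC50 values.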

[2] = tested on: recombinant NL4-3 virus (nef section replaced with Renilla luciferase gene) in MT-2 cells; experiment: HIV cell culture assay (antiviral activity, luciferase readout); format: cell-based; conditions: Renilla, NL43, MT-2 cells infected for 4-5 days with recombinant NL4-3 Renilla luciferase virus
In short: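 Read-out: Renilla luciferase (live-cell substrate) in infected MT-2 cells after 4-5 d with serial compound dilutions. Virus from 293T transfection of the proviral clone, titered by luciferase in MT-2. EC50 via median effect equation fit.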

Compound | CC50 at 4 days [1] | EC50 [2]
CS(=O)(=O)Nc1nn(CCN2C[C@H](F)C[C@H](F)C2)c2c(-n3c([C@H](Cc4cc(F)cc(F)c4)NC(=O)Cn4nc(C(F)F)c5c4C(F)(F)[C@@H]4C[C@H]54)nc4nc(C5CCC(F)(F)CC5)cc(NCCN5CCOCC5)c4c3=O)ccc(Cl)c12 (atropisomer, axis not shown; (P)) [Example 491, N-[(1S)-1-[(3P)-3-(4-chloro-1-{2-[(3R,5S)-3,5-difluoropiperidin-1-yl]ethyl}-3-methanesulfonamido-1H-indazol-7-yl)-7-(4,4-difluorocyclohexyl)-5-{[2-(morpholin-4-yl)ethyl]amino}-4-oxo-3H,4H-pyrido[2,3-d]pyrimidin-2-yl]-2-(3,5-difluorophenyl)ethyl]-2-[(2S,4R)-9-(difluoromethyl)-5,5-difluoro-7,8-diazatricyclo[4.3.0.0^2,^4]nona-1(6),8-dien-7-yl]acetamide] | > 20 nM | 0.009 nM
Cc1cc(C2CCC(F)(F)CC2)nc2nc([C@H](Cc3cc(F)cc(F)c3)NC(=O)Cn3nc(C4CC4)c4c3C[C@@H]3C[C@H]43)n(-c3ccc(Cl)c4c(NS(C)(=O)=O)nn(CC(=O)N5CC(C)(C)OC(C)(C)C5)c34)c(=O)c12 (atropisomer, axis not shown; (P)) [Example 396, N-[(1S)-1-[(3P)-3-{4-chloro-3-methanesulfonamido-1-[2-oxo-2-(2,2,6,6-tetramethylmorpholin-4-yl)ethyl]-1H-indazol-7-yl}-7-(4,4-difluorocyclohexyl)-5-methyl-4-oxo-3H,4H-pyrido[2,3-d]pyrimidin-2-yl]-2-(3,5-difluorophenyl)ethyl]-2-[(2S,4S)-9-cyclopropyl-7,8-diazatricyclo[4.3.0.0^2,^4]nona-1(6),8-dien-7-yl]acetamide] | > 20 nM | 0.02 nM
CS(=O)(=O)Nc1nn(CCN2CC[C@@H](F)C2)c2c(-n3c([C@H](Cc4cc(F)cc(F)c4)NC(=O)Cn4nc(C(F)F)c5c4C(F)(F)[C@@H]4C[C@H]54)nc4nc(C5CCC(F)(F)CC5)ccc4c3=O)ccc(Cl)c12 (atropisomer, axis not shown; (P)) [Example 208, N-[(1S)-1-[(3P)-3-(4-chloro-1-{2-[(3R)-3-fluoropyrrolidin-1-yl]ethyl}-3-methanesulfonamido-1H-indazol-7-yl)-7-(4,4-difluorocyclohexyl)-4-oxo-3H,4H-pyrido[2,3-d]pyrimidin-2-yl]-2-(3,5-difluorophenyl)ethyl]-2-[(2S,4R)-9-(difluoromethyl)-5,5-difluoro-7,8-diazatricyclo[4.3.0.0^2,^4]nona-1(6),8-dien-7-yl]acetamide] | > 50 nM | 0.009 nM
Cc1cc(C2(F)CCC(F)(F)CC2)nc2nc([C@H](Cc3cc(F)cc(F)c3)NC(=O)Cn3nc(C4CC4)c4c3C[C@@H]3C[C@H]43)n(-c3ccc(Cl)c4c(NS(C)(=O)=O)nn(C[C@H](C)N5C[C@@H](C)O[C@@H](C)C5)c34)c(=O)c12 (relative stereo) [Example 722, N-[(1S)-1-[(3P)-3-{4-chloro-1-[(2S)-2-[(2R,6S)-2,6-dimethylmorpholin-4-yl]propyl]-3-methanesulfonamido-1H-indazol-7-yl}-5-methyl-4-oxo-7-(1,4,4-trifluorocyclohexyl)-3H,4H-pyrido[2,3-d]pyrimidin-2-yl]-2-(3,5-difluorophenyl)ethyl]-2-[(2R*,4R*)-9-cyclopropyl-7,8-diazatricyclo[4.3.0.0^2,^4]nona-1(6),8-dien-7-yl]acetamide] | > 20 nM | 0.007 nM
Cc1cc(C2CCC(F)(F)CC2)nc2nc([C@H](Cc3cc(F)cc(F)c3)NC(=O)Cn3nc(C4CC4)c4c3C[C@@H]3C[C@H]43)n(-c3ccc(Cl)c4c(NS(C)(=O)=O)nn(CCN5CCO[C@H](C(C)C)C5)c34)c(=O)c12 (atropisomer, axis not shown; (P)) [Example 457, N-[(1S)-1-[(3P)-3-(4-chloro-3-methanesulfonamido-1-{2-[(2R)-2-(propan-2-yl)morpholin-4-yl]ethyl}-1H-indazol-7-yl)-7-(4,4-difluorocyclohexyl)-5-methyl-4-oxo-3H,4H-pyrido[2,3-d]pyrimidin-2-yl]-2-(3,5-difluorophenyl)ethyl]-2-[(2S,4S)-9-cyclopropyl-7,8-diazatricyclo[4.3.0.0^2,^4]nona-1(6),8-dien-7-yl]acetamide] | > 20 nM | 0.007 nM
Cc1cc(C2CCC(F)(F)CC2)nc2nc([C@H](Cc3cc(F)cc(F)c3)NC(=O)Cn3nc(C(F)F)c4c3C(F)(F)[C@@H]3C[C@H]43)n(-c3ccc(Cl)c4c(NS(C)(=O)=O)nn(CCN5C[C@H](F)C[C@H](F)C5)c34)c(=O)c12 (atropisomer, axis not shown; (P)) [Example 5, N-[(1S)-1-[(3P)-3-(4-chloro-1-{2-[(3R,5S)-3,5-difluoropiperidin-1-yl]ethyl}-3-methanesulfonamido-1H-indazol-7-yl)-7-(4,4-difluorocyclohexyl)-5-methyl-4-oxo-3H,4H-pyrido[2,3-d]pyrimidin-2-yl]-2-(3,5-difluorophenyl)ethyl]-2-[(2S,4R)-9-(difluoromethyl)-5,5-difluoro-7,8-diazatricyclo[4.3.0.0^2,4]nona-1(6),8-dien-7-yl]acetamide] | > 20000 nM | 0.009 nM
CO[C@H]1CCN(CCn2nc(NS(C)(=O)=O)c3c(Cl)ccc(-n4c([C@H](Cc5cc(F)cc(F)c5)NC(=O)Cn5nc(C(F)F)c6c5C(F)(F)[C@@H]5C[C@H]65)nc5nc(C6CCC(F)(F)CC6)cc(C(F)F)c5c4=O)c32)C1 (atropisomer, axis not shown; (P)) [Example 257, N-[(1S)-1-[(3P)-3-(4-chloro-3-methanesulfonamido-1-{2-[(3S)-3-methoxypyrrolidin-1-yl]ethyl}-1H-indazol-7-yl)-7-(4,4-difluorocyclohexyl)-5-(difluoromethyl)-4-oxo-3H,4H-pyrido[2,3-d]pyrimidin-2-yl]-2-(3,5-difluorophenyl)ethyl]-2-[(2S,4R)-9-(difluoromethyl)-5,5-difluoro-7,8-diazatricyclo[4.3.0.0^2,^4]nona-1(6),8-dien-7-yl]acetamide] | > 50 nM | 0.027 nM
Cc1cc(C2CCC(F)(F)CC2)nc2nc([C@H](Cc3cc(F)cc(F)c3)NC(=O)Cn3nc(C(F)F)c4c3C(F)(F)[C@@H]3C[C@H]43)n(-c3ccc(Cl)c4c(NS(C)(=O)=O)nn([C@@H](C)CN5CC(C)(C)OC(C)(C)C5)c34)c(=O)c12 (atropisomer, axis not shown; (P)) [Example 742, N-[(1S)-1-[(3P)-3-{4-chloro-3-methanesulfonamido-1-[(2S)-1-(2,2,6,6-tetramethylmorpholin-4-yl)propan-2-yl]-1H-indazol-7-yl}-7-(4,4-difluorocyclohexyl)-5-methyl-4-oxo-3H,4H-pyrido[2,3-d]pyrimidin-2-yl]-2-(3,5-difluorophenyl)ethyl]-2-[(2S,4R)-9-(difluoromethyl)-5,5-difluoro-7,8-diazatricyclo[4.3.0.0^2,^4]nona-1(6),8-dien-7-yl]acetamide] | > 20 nM | 0.026 nM
